Source: ChEMBL document CHEMBL4265905, “Synthesis and biological evaluation of novel Jiyuan Oridonin A-1,2,3-triazole-azole derivatives as antiproliferative agents” (Eur J Med Chem, 2018)
pIC50: −log10 of the molar value.

How the values were obtained:
Assay type in all cases: functional, cell-based
[1] = tested on: PC-3; test: Antiproliferative activity against human PC3 cells after 72 hrs by MTT assay; conditions: PC-3, 72 h
[2] = tested on: ECa-109 cell line; test: Antiproliferative activity against human ECA109 cells after 72 hrs by MTT assay; conditions: ECa-109, 72 h
[3] = tested on: MGC-803; test: Antiproliferative activity against human MGC803 cells after 72 hrs by MTT assay; conditions: MGC-803, 72 h
[4] = tested on: MCF7; test: Antiproliferative activity against human MCF7 cells after 72 hrs by MTT assay; conditions: MCF7, 72 h
[5] = tested on: SMMC-7721; test: Antiproliferative activity against human SMMC7721 cells after 72 hrs by MTT assay; conditions: SMMC-7721, 72 h
[6] = tested on: A549; test: Antiproliferative activity against human A549 cells after 72 hrs by MTT assay; conditions: A549, 72 h

Row | SMILES | pIC50 [1] | pIC50 [2] | pIC50 [3] | pIC50 [4] | pIC50 [5] | pIC50 [6]
1 | C=C1C(=O)[C@]23[C@H](O)[C@H]1C[C@H](O)[C@H]2[C@]12CCCC(C)(C)[C@H]1C[C@H]3O[C@@H]2OCCCn1cc(CSc2nnc(C)s2)nn1 | 5.11 | 5.21 | 5.35 | 4.84 | – | –
2 | C=C1C(=O)[C@]23[C@H](O)[C@H]1C[C@H](O)[C@H]2[C@]12CCCC(C)(C)[C@H]1C[C@H]3O[C@H]2O | 4.61 | 4.60 | 4.57 | 4.68 | 4.84 | 4.79
3 | C=C1C(=O)[C@]23[C@H](O)[C@H]1C[C@H](O)[C@H]2[C@]12CCCC(C)(C)[C@H]1C[C@H]3O[C@@H]2OCCCn1cc(CSC2=NCCS2)nn1 | 5.85 | 6.10 | 5.77 | 5.59 | 5.46 | 5.40
4 | C=C1C(=O)[C@]23[C@H](O)[C@H]1C[C@H](O)[C@H]2[C@]12CCCC(C)(C)[C@H]1C[C@H]3O[C@@H]2OCCCn1cc(CN2C(=O)S/C(=C\c3ccccc3Cl)C2=O)nn1 | 4.74 | 5.59 | 4.59 | 5.10 | – | –
5 | C=C1C(=O)[C@]23[C@H](O)[C@H]1C[C@H](O)[C@H]2[C@]12CCCC(C)(C)[C@H]1C[C@H]3OC2OCCCN=[N+]=[N-] (single isomer, unassigned) | 5.00 | 5.00 | 5.01 | 5.12 | 4.92 | 4.87
6 | C=C1C(=O)[C@]23[C@H](O)[C@H]1C[C@H](O)[C@H]2[C@]12CCCC(C)(C)[C@H]1C[C@H]3O[C@@H]2OCCCn1cc(CN2C(=O)S/C(=C/CCCCC)C2=O)nn1 | 5.28 | 5.38 | 5.92 | 5.72 | 5.28 | 5.32
7 | C=C1C(=O)[C@]23[C@H](O)[C@H]1C[C@H](O)[C@H]2[C@]12CCCC(C)(C)[C@H]1C[C@H]3O[C@@H]2OCCCn1cc(CN2C(=O)SC(=C(C)C)C2=O)nn1 | 5.21 | 5.31 | 5.60 | 5.37 | 5.24 | 5.04
8 | C=C1C(=O)[C@]23[C@H](O)[C@H]1C[C@H](O)[C@H]2[C@]12CCCC(C)(C)[C@H]1C[C@H]3O[C@@H]2OCCCn1cc(CN2C(=O)S/C(=C\c3ccc(F)c(F)c3)C2=O)nn1 | 4.79 | 5.48 | 4.46 | 5.32 | – | –
9 | C=C1C(=O)[C@]23[C@H](O)[C@H]1C[C@H](O)[C@H]2[C@]12CCCC(C)(C)[C@H]1C[C@H]3O[C@@H]2OCCCn1cc(CN2C(=O)S/C(=C\c3ccccc3)C2=O)nn1 | 4.88 | 5.31 | 4.70 | 5.18 | – | –
10 | C=C1C(=O)[C@]23[C@H](O)[C@H]1C[C@H](O)[C@H]2[C@]12CCCC(C)(C)[C@H]1C[C@H]3O[C@@H]2OCCCn1cc(CSc2nc3ccccc3s2)nn1 | 5.80 | 5.85 | 5.68 | 5.38 | 5.74 | 5.24
11 | C=C1C(=O)[C@]23[C@H](O)[C@H]1C[C@H](O)[C@H]2[C@]12CCCC(C)(C)[C@H]1C[C@H]3O[C@@H]2OCCCn1cc(CN2C(=O)S/C(=C\c3ccc([N+](=O)[O-])cc3)C2=O)nn1 | 4.88 | 5.27 | 4.56 | 5.31 | – | –
12 | C=C1C(=O)[C@]23[C@H](O)[C@H]1C[C@H](O)[C@H]2[C@]12CCCC(C)(C)[C@H]1C[C@H]3O[C@@H]2OCCCn1cc(CN2C(=O)S/C(=C\c3cc(OC)c(OC)c(OC)c3)C2=O)nn1 | 4.86 | 4.93 | 5.00 | 5.39 | – | –
13 | C=C1C(=O)[C@]23[C@H](O)[C@H]1C[C@H](O)[C@H]2[C@]12CCCC(C)(C)[C@H]1C[C@H]3O[C@@H]2OCCCn1cc(CN2C(=O)S/C(=C\c3ccc(F)cc3)C2=O)nn1 | 4.87 | 5.33 | 4.53 | 4.80 | – | –
14 | C=C1C(=O)[C@]23[C@H](O)[C@H]1CC[C@H]2[C@@]12CO[C@]3(O)[C@@H](O)[C@@H]1C(C)(C)CC[C@@H]2O [ORIDONIN] | 4.36 | 4.47 | 4.46 | 4.19 | 4.52 | 4.60
15 | C=C1C(=O)[C@]23[C@H](O)[C@H]1C[C@H](O)[C@H]2[C@]12CCCC(C)(C)[C@H]1C[C@H]3O[C@@H]2OCCCn1cc(CSc2nncs2)nn1 | 5.02 | 5.25 | 5.28 | 4.82 | – | –
16 | C=C1C(=O)[C@]23[C@H](O)[C@H]1C[C@H](O)[C@H]2[C@]12CCCC(C)(C)[C@H]1C[C@H]3O[C@@H]2OCCCn1cc(CN2C(=O)CSC2=O)nn1 | 5.24 | 4.46 | < 4.30 | 5.02 | – | –
17 | C=C1C(=O)[C@]23[C@H](O)[C@H]1C[C@H](O)[C@H]2[C@]12CCCC(C)(C)[C@H]1C[C@H]3O[C@@H]2OCCCn1cc(CSc2nnnn2C)nn1 | 4.94 | 5.07 | 5.05 | 4.87 | – | –
18 | C=C1C(=O)[C@]23[C@H](O)[C@H]1C[C@H](O)[C@H]2[C@]12CCCC(C)(C)[C@H]1C[C@H]3O[C@@H]2OCCCn1cc(CSc2ncccn2)nn1 | 5.23 | 5.30 | 5.28 | 4.83 | – | –
19 | C=C1C(=O)[C@]23[C@H](O)[C@H]1C[C@H](O)[C@H]2[C@]12CCCC(C)(C)[C@H]1C[C@H]3O[C@@H]2OCCCn1cc(CN2C(=O)S/C(=C/CC)C2=O)nn1 | 5.05 | 5.60 | 5.68 | 5.39 | 5.47 | 5.11
20 | C=C1C(=O)[C@]23[C@H](O)[C@H]1C[C@H](O)[C@H]2[C@]12CCCC(C)(C)[C@H]1C[C@H]3O[C@@H]2OCCCn1cc(CN2C(=O)S/C(=C\c3ccc(OC)cc3)C2=O)nn1 | 4.94 | 5.03 | 4.76 | 5.05 | – | –
